What was measured:
[1] = Liver retinoids of Lrat-/- mice 3 h after gavage with all-trans-DROL; format: in vivo, mouse; conditions: 3 h post-gavage
Description: Metabolism of Retinoids in Vivo. All animal experiments employed procedures approved by the University of Washington and conformed to recommendations of the American Veterinary Medical Association Panel on Euthanasia and recommendations of the Association of Research for Vision and Ophthalmology. Animals were maintained on a 12-h light and 12-h dark cycle. All manipulations were done under dim red or infrared light (>560 nm). Most experiments used 6-12-week-old mice. Lrat−/− mice were genotyped as described previously. Batten, et al. J. Biol. Chem. 279:10422-10432, 2004. Animals were maintained on a control chow diet up to 1 h prior to oral gavage. The appropriate amount of all-trans-ROL palmitate, all-trans-DROL, or all-trans-RA was dissolved in vegetable oil and administered by oral gavage 3 h prior to analysis.
Analysis of Retinoids. Liver (1 g) from retinoid gavaged or naive mice was homogenized in 2 ml of 137 mM NaCl, 2.7 mM KCl, and 10 mM sodium phosphate (pH 7.4) for 30 s using a Polytron homogenizer. 10 μl of 5 M NaOH was added to 3 ml of the ethanolic extract, and the nonpolar retinoids were extracted using 5 ml of hexane. The extraction was repeated, and the organic phases were combined, dried under vacuum, resuspended in hexane, and examined by normal phase HPLC using a normal phase column (Beckman Ultrasphere Si 5μ, 4.6×250 mm). […] The HPLC elution conditions were […], 100% buffer A for 40 min, 100% buffer B for 10 min, and 10 min equilibration in buffer A. The elution profiles of RA and DRA were monitored using an online diode array detector set at 350 and 290 nm, respectively. […] The measured area of absorbance was converted to picomoles based on a calibration of the HPLC columns using a known amount of all-trans-RA or all-trans-ROL (Sigma) and all-trans-DROL or all-trans-DRA (synthetic standards). The extraction efficiency was monitored by spiking a tissue sample with [^3H]RA (PerkinElmer Life Sciences) and monitoring the radioactivity recovered from the HPLC column. […]

RAR/RXR heterodimers = assay: F9-RARE-lacZ DR5 RARE reporter cell assay; conditions: linear part of the dose-response curve
Procedure: RARE and RXRE Activation Assay. […] The RA-responsive F9 cell line was transfected with a reporter construct of an RARE derived from the human retinoic acid receptor-β gene (RAR-β) placed upstream of the Escherichia coli lacZ gene. […] Cells were grown in L15-CO2 media containing N-3 supplements and antibiotics. […] After 24 h, cells were split into 24-well plates to ensure an equal number of transfected cells in each assay well. Cells were stimulated with appropriate concentrations of all-trans-RA, 9-cis-RA, or all-trans-DRA. After 48 h, the expression of β-galactosidase was assayed as described above.

Equine liver ADH = target: T1, Equine liver ADH (Equus caballus, UniProt P00327); assay: Oxidation using liver alcohol dehydrogenase; format: biochemical, horse; conditions: in the presence of NAD and NADP
T1 construct: we used ADH purified from horse liver (EC 1.1.1.1 [EC]); purchased Sigma; host or cells: horse liver
Procedure: Oxidation of All-trans-ROL and All-trans-DROL Using Liver Alcohol Dehydrogenase. Equine liver ADH (EC 1.1.1.1 [EC] ) was obtained from Sigma and dissolved in 50 mM Tris (pH 8.8) to a concentration of 5 units/ml (8.6 mg/ml). NAD and NADP were mixed together (1:1) at a concentration of 10 mM each. A substrate solution, 2 μl of 2 mM stock of all-trans-ROL or all-trans-DROL in N,N-dimethylformamide, was added to a 1.5-ml Eppendorf tube containing 20 μl of 10% bovine serum albumin, 20 μl of ADH, 2 μl of cofactor mixture, and 50 mM Tris (pH 8.8) to a total volume of 200 μl. The solutions were incubated at 37° C. for 60 min, after which 50 μl of 0.8 M NH2OH solution (pH 7.0) was added, followed by addition of 300 μl of methanol, 15 min at room temperature, and extraction with 300 μl of hexane. The organic phase was dried and analyzed by normal phase HPLC as described in the analysis of nonpolar retinoids extracted from tissue samples. As a control for the nonenzymatic reaction, boiled protein (90° C. for 5 min) was used with or without addition of cofactors.

T1 sequence (P00327 2-375 limits assumed): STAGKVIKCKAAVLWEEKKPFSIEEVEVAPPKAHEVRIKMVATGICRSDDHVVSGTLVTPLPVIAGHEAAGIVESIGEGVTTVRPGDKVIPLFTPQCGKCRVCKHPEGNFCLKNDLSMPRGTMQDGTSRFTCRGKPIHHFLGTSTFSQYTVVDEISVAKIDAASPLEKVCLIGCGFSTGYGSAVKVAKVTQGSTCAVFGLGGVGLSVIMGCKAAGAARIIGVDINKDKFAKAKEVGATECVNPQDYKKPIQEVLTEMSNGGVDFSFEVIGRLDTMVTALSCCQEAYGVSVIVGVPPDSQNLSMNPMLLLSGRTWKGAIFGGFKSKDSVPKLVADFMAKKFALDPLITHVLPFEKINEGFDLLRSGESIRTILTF

SMILES	Level in liver after gavage with all-trans-DROL [1]	Fold less effective than all-trans-RA in activating DR5-response elements (RAR/RXR heterodimers)	Oxidation to the aldehyde by ADH (Equine liver ADH)
CC1=C(/C=C/C(C)=C/C=C/C(C)CC(=O)O)C(C)(C)CCC1 (stereo not drawn) [all-trans-DRA, all-trans-13,14-dihydroretinoic acid]	significant levels	about 100 fold	–
CC1=C(/C=C/C(C)=C/C=C/C(C)CCO)C(C)(C)CCC1 (stereo not drawn) [all-trans-DROL, all-trans-13,14-dihydroretinol]	–	–	efficiently carried out the conversion
CC1=C(/C=C/C(C)=C/C=C/C(C)=C/CO)C(C)(C)CCC1 [all-trans-ROL, all-trans-retinol]	–	–	efficiently carried out the conversion
